Key:
[1] = system: CT26 murine colon tumor cells; experiment: CT26 tumor growth with or without poly-ICLC (Example 13); format: in vivo, BALB/c mice; conditions: day 25 post-tumor implantation, relative to PBS or poly-ICLC alone
Procedure: The goal of this experiment was to determine the requirement for the inclusion of the adjuvant poly-ICLC in a peptide vaccine containing ANCER™ selected neoantigens. For this experiment, female BALB/c mice were implanted subcutaneously with 3×10^5 CT26 murine colon tumor cells. Tumor growth was monitored by caliper measurement and mice were sacrificed 45 days after tumor implantation or when tumor volumes reached 2000 mm^3, whichever came first.
Four vaccine groups were tested (n=10 mice/group):
Peptide vaccines were comprised of 20 different ANCER™ selected peptides at a concentration of 5 μg/peptide for a total dose of 100 μg peptide per immunization. Mice were immunized subcutaneously in the opposite flank from tumor implantation twice per week for three weeks, starting at day 4 post-tumor implantation.

[2] = system: CT26 tumor cells; experiment: CT26 tumor growth and survival after vaccination (Example 1); format: in vivo; conditions: CT26 in Balb/c mice

poly-ICLC
control of tumor growth [1]: no difference in tumor growth kinetics
mice reaching a tumor volume of at least 2,000 mm^3 (endpoint) by day 28 ([2]; N=10): 60%
mice that survived past day 28 ([2]; N=10): Less than 50%
mice that survived the 45 days of the experiment ([2]; N=10, in words): None
tumor burden compared to Group 1 (PBS) ([2]; sc injections days 5-26): no reduction in tumor burden

Reference: patent publication US20210145951A1, “COMPOSITIONS AND METHODS FOR SHARED NEO-EPITOPE VACCINES” (Epivax Oncology, Inc., priority 2019, published 2021)
